# In patent US20240408139A1, “ENGINEERED CYTOKINE RECEPTORS FOR TUNABLE ADOPTIVE CELL THERAPY” (Dana-Farber Cancer Institute, Inc., priority 2021, published 2024):
# How the values were obtained:
# [1] = test system: CD8+ T cells comprising anti-fluorescein CAR; experiment: Stimulation of anti-fluorescein CAR T cells by plate-bound or free FITC conjugate; IL-2, IFN-gamma and CD69 by flow cytometry; format: cell-based
# Method: T cells comprising a nucleic acid encoding anti-fluorescein CAR were stimulated on FITC-conjugated-antibody-coated normal (Normal) or high affinity (High affinity) plates or antibody-FITC solution (Free) with increasing doses of FITC (0, 0.1, 1, 10, and 100 μg/mL) in the presence or absence of CD3/CD28 co-stimulation. Expression of IL-2, IFN-gamma and CD69 in CD8^+ T cells were assessed by flow cytometry.
# CD8+ T cells = experiment: Memory markers on CD8+ T cells expressing cytokine receptor switches, stimulated on FITC-conjugated-BSA-coated plate, flow cytometry; format: cell-based, human; conditions: with CD3/CD28-costimulation
# Method: (§1) T cells comprising nucleic acids encoding cytokine receptor switches were stimulated on FITC-conjugated-BSA-coated plate (FIG. 2) with increasing dose of FITC (0, 0.1, 1, 10, 100, and 1000 μg/mL) in the presence or absence of CD3/CD28 co-stimulation for up to 2 weeks. The effector memory (CD45RA^− CCR7^−), central memory (CD45RA^−, CCR7 ^+), and activation (CD69) markers on CD4^+ and CD8^+ T cells were assessed by flow cytometry.
# CD4+ T cells = experiment: Memory markers on CD4+ T cells expressing cytokine receptor switches, stimulated on FITC-conjugated-BSA-coated plate, flow cytometry; format: cell-based, human; conditions: with CD3/CD28-costimulation, up to 2 weeks, FIG. 3A
# Method: as §1
molecule,measurement,setting,value
BSA-FITC: fluorescein isothiocyanate (FITC) conjugated to bovine serum albumin (BSA),stimulation of fluorescein-specific BAT-CAR-T cells,"[1]; bound on high-affinity plate, FIGS. 5A-5C",efficiently stimulated
fluorescein isothiocyanate [FITC],expression of IL-2 in CAR T cells,"[1]; FITC-dose-dependent, 0-100 μg/mL, FIG. 5A",increased
same,expression of IFN-gamma in CAR T cells,"[1]; FITC-dose-dependent, 0-100 μg/mL, FIG. 5B",increased
same,expression of CD69 in CAR T cells,"[1]; FITC-dose-dependent, 0-100 μg/mL, FIG. 5C",increased
"IL2RA-cytokine receptor switch: IL2RA signal peptide, anti-fluorescein scFv, CD8 hinge, IL2RA transmembrane and intracellular domains; SEQ ID NO: 59 (protein) MDSYLLMWGLLTFIMVPGCQADVVMTQTPLSLPVSLGDQASISCRSSQSLVHSNGNTYLRWYLQKPGQSPKVLIYKVSNRVSGVPDRFSGSGSGTDFTLKINRVEAEDLGVYFCSQSTHVPWTFGGGTKLEIKSSADDAKKDAAKKDDAKKDDAKKDGGVKLDETGGGLVQPGGAMKLSCVTSGFTFGHYWMNWVRQSPEKGLEWVAQFRNKPYNYETYYSDSVKGRFTISRDDSKSSVYLQMNNLRVEDTGIYYCTGASYGMEYLGQGTSVTVSTTTPAPRPPTPAPTIASQPLSLRPEACRPAAGGAVHTRGLDFACDVAVAGCVFLLISVLLLSGLTWQRRQRKSRRTI","central memory markers (CD45RA-, CCR7+) on CD8+ T cells",CD8+ T cells; FIG. 3B,increased
same,effector memory markers (CD45RA- CCR7-) on CD8+ T cells,"CD8+ T cells; FITC-BSA-coated plate, up to 2 weeks, FIG. 3A",increased
same,effector memory markers (CD45RA- CCR7-) on CD4+ T cells,CD4+ T cells,increased
